Reference: PubChem BioAssay AID330 (DTP/NCI, 2004)
“And” between values parts separate entries of the source, which are not always exact repeats. Equal entries are not always repeated. Toxic doses and inconclusive results are not listed. How the source made its calls: active means survival T/C of 150% or more; inactive means T/C below 125% in these data. Peptide text beside a SMILES is read from it.

System: P388 leukemia ip, CD2F1 mice, survival T/C
Assay: NCI In Vivo Anticancer Drug Screen. Data for tumor model P388 Leukemia (intraperitoneal) in CD2F1 (CDF1) mice
Settings: endpoint: median survival time, higher = longer survival
Procedure, shortened: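 Mice carrying the transplanted tumor received test compound or vehicle. Survival was recorded in each group, and the value is the treated-group measurement divided by that of the vehicle-treated control group.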

[1] = dose: 50.0 mg/kg/injection, schedule: Q01DX005 (ip), vehicle: saline with Tween-80
[2] = dose: 100.0 mg/kg/injection, schedule: Q01DX005 (ip), vehicle: saline with Tween-80
[3] = dose: 200.0 mg/kg/injection, schedule: Q01DX005 (ip), vehicle: saline with Tween-80
[4] = dose: 50.0 mg/kg/injection, schedule: Q01DX005 (ip), vehicle: Klucel (hydroxypropylcellulose) (HPC)
[5] = dose: 100.0 mg/kg/injection, schedule: Q01DX005 (ip), vehicle: Klucel (hydroxypropylcellulose) (HPC)
[6] = dose: 200.0 mg/kg/injection, schedule: Q01DX005 (ip), vehicle: Klucel (hydroxypropylcellulose) (HPC)

Measured: T/C

CC(=O)C(C[n+]1ccccc1)c1ccccc1 (centres undefined)
inactive: dose: 15.0 mg/kg/injection, schedule: Q01DX005 (ip), vehicle: saline 98 % of control | dose: 30.0 mg/kg/injection, schedule: Q01DX005 (ip), vehicle: saline 98 % of control | dose: 60.0 mg/kg/injection, schedule: Q01DX005 (ip), vehicle: saline 102 % of control and 107 % of control

CC(O)C(N)C(=O)NC(Cc1ccccc1)C(N)=O (stereo not drawn) (H-Thr-Phe-NH2; configuration not given here)
inactive: [1] 101 % of control | [2] 100 % of control | [3] 103 % of control

Cc1nn(-c2ccccc2)nc1CCl
inactive: [4] 101 % of control | [5] 99 % of control | [6] 95 % of control

COC1=CC2C3C(=O)NC(=O)C3C1C1CC(C#N)C21OC (centres undefined)
inactive: dose: 100.0 mg/kg/injection, schedule: Q01DX001 (ip), vehicle: saline with Tween-80 104 % of control | dose: 200.0 mg/kg/injection, schedule: Q01DX001 (ip), vehicle: saline with Tween-80 114 % of control | dose: 400.0 mg/kg/injection, schedule: Q01DX001 (ip), vehicle: saline with Tween-80 107 % of control

CC(C)(C)OC(=O)NC(N)=NCCCC(NC(=O)OC(C)(C)C)C(=O)O (centres undefined)
inactive: [1] 100 % of control | [2] 103 % of control | [3] 102 % of control

O=C(O)CCCc1ccc(N(CCO)CCO)cc1
inactive: dose: 100.0 mg/kg/injection, schedule: Q04DX003 (ip), vehicle: saline 114 % of control | dose: 200.0 mg/kg/injection, schedule: Q04DX003 (ip), vehicle: saline 109 % of control | dose: 400.0 mg/kg/injection, schedule: Q04DX003 (ip), vehicle: saline 103 % of control

CCO/C(C)=N\c1nc(C)[nH]c1C(N)=O
inactive: dose: 6.25 mg/kg/injection, schedule: Q01DX009 (ip), vehicle: saline with Tween-80 120 % of control | dose: 12.5 mg/kg/injection, schedule: Q01DX009 (ip), vehicle: saline with Tween-80 106 % of control | dose: 25.0 mg/kg/injection, schedule: Q01DX009 (ip), vehicle: saline with Tween-80 87 % of control | dose: 200.0 mg/kg/injection, schedule: Q01DX009 (ip), vehicle: saline 86 % of control

CC1CN1c1cc(O)c(N2CC2C)cc1O (centres undefined)
active: dose: 2.5 mg/kg/injection, schedule: Q04DX003 (ip), vehicle: saline with Tween-80 150 % of control | dose: 4.4 mg/kg/injection, schedule: Q04DX003 (ip), vehicle: saline with Tween-80 228 % of control | dose: 5.0 mg/kg/injection, schedule: Q04DX003 (ip), vehicle: saline with Tween-80 159 % of control | dose: 6.6 mg/kg/injection, schedule: Q04DX003 (ip), vehicle: saline with Tween-80 238 % of control
inactive: dose: 0.29 mg/kg/injection, schedule: Q01DX009 (ip), vehicle: saline with Tween-80 100 % of control | dose: 0.44 mg/kg/injection, schedule: Q01DX009 (ip), vehicle: saline with Tween-80 118 % of control | dose: 0.63 mg/kg/injection, schedule: Q04DX003 (ip), vehicle: saline with Tween-80 109 % of control | dose: 0.66 mg/kg/injection, schedule: Q01DX009 (ip), vehicle: saline with Tween-80 122 % of control

COc1c2ccncc2c(C)c2c1[nH]c1ccccc12
inactive: dose: 6.25 mg/kg/injection, schedule: Q04DX002 (ip), vehicle: distilled water + Tween-80 98 % of control | dose: 12.5 mg/kg/injection, schedule: Q04DX002 (ip), vehicle: distilled water + Tween-80 94 % of control | dose: 25.0 mg/kg/injection, schedule: Q04DX002 (ip), vehicle: distilled water + Tween-80 94 % of control | dose: 50.0 mg/kg/injection, schedule: Q04DX002 (ip), vehicle: distilled water + Tween-80 89 % of control | dose: 100.0 mg/kg/injection, schedule: Q04DX002 (ip), vehicle: distilled water + Tween-80 89 % of control | dose: 200.0 mg/kg/injection, schedule: Q04DX002 (ip), vehicle: distilled water + Tween-80 88 % of control

CCN1C(=O)C(=C2C=C(c3ccccc3)C(C#N)(c3ccccc3)C(c3ccccc3)=C2)C(=O)N(CC)C1=S (centres undefined)
inactive: [4] 99 % of control | [5] 97 % of control | [6] 98 % of control

NC(=S)N/N=C/c1c(Br)n(-c2ccccc2)c2ccccc12
inactive: dose: 100.0 mg/kg/injection, schedule: Q01DX001 (ip), vehicle: Klucel (hydroxypropylcellulose) (HPC) 94 % of control | dose: 200.0 mg/kg/injection, schedule: Q01DX001 (ip), vehicle: Klucel (hydroxypropylcellulose) (HPC) 98 % of control | dose: 400.0 mg/kg/injection, schedule: Q01DX001 (ip), vehicle: Klucel (hydroxypropylcellulose) (HPC) 91 % of control

C[n+]1c(-c2ccc(/C=N/NC(=O)c3cc(O)c(C(=O)N/N=C/c4ccc(-c5cn6ccccc6[n+]5C)cc4)cc3O)cc2)cn2ccccc21
inactive: dose: 60.0 mg/kg/injection, schedule: Q01DX005 (ip), vehicle: saline with Tween-80 105 % of control | dose: 120.0 mg/kg/injection, schedule: Q01DX005 (ip), vehicle: saline with Tween-80 105 % of control
